≈ marks a conversion by molar mass, not a printed value. Like-named read-outs stand apart in the source and are kept apart here.
Assays:
[1] = test system: lipoprotein lipase (LPL) gene; assay: LPL mRNA elevating action (RT-PCR quantification of LPL mRNA in C2Cl2 cells); type: cell-based, mouse; settings: Mus musculus, 24 h, compound 10 μM, ratio relative to the amount of LPL mRNA in cells with DMSO only, read-out: Rate of increase in LPL mRNA
Experimental: LPL mRNA Elevating Action
C2Cl2 cells (cell strain derived from striated muscle of mouse) were seeded in 96-well plates using a DMEM medium (Gibco) (containing 2 mM L-glutamine and 10% fetal bovine serum). After the cells were grown, the medium was removed. Subsequently, media obtained by adding dimethyl sulfoxide (DMSO) solutions of the compounds to the same medium as described above to a concentration of 10 μM were individually added to the cells and allowed to stand for 24 hours. The compound-containing media were removed, and the plates were washed with phosphate buffered saline. Thereafter, the remaining cells were lysed and subjected to a reverse transcription polymerase chain reaction (RT-PCR reaction) to obtain cDNA. Primers specific to lipoprotein lipase (LPL) gene, a necessary enzyme, etc., were added to the obtained cDNA. The mixture was set in 7500 Fast Real Time PCR System produced by Applied Biosystem to perform a PCR reaction (20 cycles) and the amount of LPL mRNA amplified was quantified. The LPL mRNA elevating action of each compound in the test cells was indicated as the ratio relative to the amount of LPL mRNA in cells allowed to stand in a medium to which only DMSO was added, with the amount being defined as 1.
As Comparative Example 1, a test was performed in the same manner as above, using a compound disclosed as the compound of Example 57 in WO2010/090200.

[2] = Solubility in gastric juice or intestinal juice model fluid (precipitation method using DMSO); type: physicochemical; settings: room temperature
Procedure, shortened: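 Compound in DMSO added to JP disintegration test fluid 1 (pH 1.2) or fluid 2 (pH 6.8) and shaken 24 h at room temperature. After filtration, dissolved concentration (μg/mL) determined by UV absorbance against compound calibration curves.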

[3] = pH 1.2, simulated gastric fluid, kinetic from dmso stock, 1st fluid for Disintegration Test of Japanese Pharmacopoeia (pH: 1.2), read-out: Solubility (μg/mL) 1st fluid
[4] = pH 6.8, kinetic from dmso stock, 2nd fluid for Disintegration Test of Japanese Pharmacopoeia (pH: 6.8), read-out: Solubility (μg/mL) 2nd fluid

| SMILES | solubility at 24 h [2, 3] [µg/mL] | solubility at 24 h [2, 4] [µg/mL] | melting point | fold induction at 10 µM [1] |
| --- | --- | --- | --- | --- |
| COc1cc(-c2[nH]c(C3CC(F)(F)C3)nc2Cl)ccc1OCc1ccc(C(F)(F)F)cn1 [Example 191] | 25.9 (≈ 54.7 µM) | 1.7 (≈ 3.59 µM) | 201 to 203 °C (dec.) | 4.06 |
| COc1cc(-c2[nH]c(C3CC(F)(F)C3)nc2Cl)ccc1OCc1ccc(C(F)(F)F)nc1 [Example 179] | 25.8 (≈ 54.5 µM) | 2.3 (≈ 4.85 µM) | 170 to 174 °C | 2.66 |
| COc1cc(-c2c[nH]c(-c3ccc(F)nc3)n2)cc(OC)c1OCc1ccc(C(F)(F)F)cn1 [Example 46] | 22.9 (≈ 48.3 µM) | < 9.1 | 107 to 110 °C | 2.49 |
| COc1cc(-c2cnc(C3CCC(F)(F)CC3)[nH]2)ccc1O [Example 339] | > 62 | 58.9 (≈ 191 µM) | 131 to 136 °C | 1.32 |
| Fc1ccc(-c2ncc(-c3ccc(OCc4ncc(C(F)(F)F)cc4F)cc3Cl)[nH]2)cn1 [Example 360] | 90.7 (≈ 194 µM) | 0.6 (≈ 1.29 µM) | 169 to 171 °C | 3.93 |
| COc1cc(OCc2ncc(C(F)(F)F)cc2F)ccc1-c1cnc(-c2ccc(Br)nc2)[nH]1 [Example 387] | 4.8 (≈ 9.17 µM) | 0.8 (≈ 1.53 µM) | 191 to 193 °C | 2.41 |
| COc1cc(OCc2ccc(C(F)(F)F)nc2)ccc1-c1c(Br)nc(-c2ccc(Cl)nc2)n1C [Example 299] | – | – | 140 to 142 °C | 2.97 |
| COc1cc(OCc2ccc(F)cc2F)ccc1-c1cnc(-c2ccc(F)nc2)[nH]1 [Example 142] | – | – | 168 to 173 °C | 2.27 |
| COc1cc(OCc2ccc(C(F)(F)F)nc2)ccc1-c1nc(-c2ccc(Cl)nc2)[nH]c1Br [Example 222] | – | – | 222 to 223 °C (dec.) | 2.89 |
| COc1cc(OCc2cccc(C(F)(F)F)n2)ccc1-c1[nH]c(-c2ccc(F)nc2)nc1Br [Example 273] | – | – | 200 to 202 °C (dec.) | 2.5 |

The next lines start with results.

| solubility at 24 h [2, 3] [µg/mL] | solubility at 24 h [2, 4] [µg/mL] | melting point | SMILES | fold induction at 10 µM [1] |
| --- | --- | --- | --- | --- |
| 5.9 (≈ 10.9 µM) | 1 (≈ 1.85 µM) | 176 to 186 °C | COc1cc(OCc2ncccc2C(F)(F)F)ccc1-c1[nH]c(-c2ccc(Cl)nc2)nc1Br [Example 253] | 2.62 |
| 9.8 (≈ 20.4 µM) | 6 (≈ 12.5 µM) | 204 to 206 °C | Cc1cc(OCc2ncc(C(F)(F)F)cc2F)ccc1-c1[nH]c(-c2ccc(F)nc2)nc1Cl [Example 352] | 5.48 |
| – | – | 163 to 165 °C | COc1cc(OCc2ccc(F)cc2F)ccc1-c1[nH]c(-c2ccc(F)nc2)nc1Cl [Example 285] | 3.01 |
| – | – | 165 to 171 °C | COc1cc(OCc2cccnc2C(F)(F)F)ccc1-c1[nH]c(-c2ccc(F)nc2)nc1Cl [Example 287] | 3.53 |
| – | – | 189 to 191 °C | COc1cc(OCc2cccc(C(F)(F)F)n2)ccc1-c1[nH]c(-c2ccc(F)nc2)nc1Cl [Example 172] | 3.12 |
| – | – | 160 to 162 °C | COc1cc(OCc2ncc(C(F)(F)F)cc2Cl)ccc1-c1[nH]c(-c2ccc(F)nc2)nc1Cl [Example 262] | 3.61 |
| – | – | 166 to 170 °C | COc1cc(OCc2ncc(C(F)(F)F)cc2Br)ccc1-c1[nH]c(-c2ccc(F)nc2)nc1Cl [Example 263] | 3.18 |
| – | – | 203 to 208 °C | COc1cc(OCc2ccncc2C(F)(F)F)ccc1-c1[nH]c(-c2ccc(F)nc2)nc1Cl [Example 277] | 2.66 |
| – | – | 174 to 181 °C | COc1cc(OCc2ncc(Cl)cc2F)ccc1-c1[nH]c(-c2ccc(Cl)nc2)nc1Cl [Example 249] | 2.5 |
| – | – | 179 to 180 °C | COc1cc(OCc2ncc(C(F)(F)F)cc2Cl)ccc1-c1[nH]c(-c2ccc(F)nc2)nc1Br [Example 261] | 4.08 |
